{"source": "patent US20240228659A1", "about": "“NEW METHOD TO IMPROVE NK CELLS CYTOTOXICITY” (INSERM (INSTITUT NATIONAL DE LA SANTÉ ET DE LA RECHERCHE …, priority 2021, published 2024)", "format_in_all_cases": "in vivo, mouse", "key": {"NXS2 cells": {"system": "NXS2 cells", "assay": "murine NXS2 neuroblastoma experimental liver metastasis model in A/J mice", "conditions": "FIG. 1B; 8 mice/group; day 27 after i.v. NXS2 inoculation; 8B6 25 μg i.v. twice weekly x3 weeks; 13-cis-RA 10 mg/kg per os", "procedure": "FIG. 1. 13-cis-Retinoic acid enhances anti-neuroblastoma activity of anti-O-acetylated GD2 ganglioside in vivo. (A) Mice (8 animal/group) were inoculated with 2.5×10^5 NXS2 cells by i.v. injections on day 0. Antibody 8B6 treatment was performed on days 3, 7, 10, 14, 17, and 21 (cumulative dose=150 μg). 13-cis-retinoic acid treatment was given at 10 mg/kg, per os, five times weekly, day 17 to 21. Mice were euthanized 27 days post-tumor cell inoculation. (B) Anti-tumor efficacy was evaluated by determining the number of liver metastasis. Mean liver metastasis number±SEM of each treatment group, as depicted (** p<0.01; Mann-Whitney test). (C) The mice body weight was recorded for each treatment group, as indicated. Mean weight (mean±SEM, n=8) of mice on day 0 was defined as 100% weight. Weight in each group remained stable for the period of the treatment.\nFIG. 4. […] (B) Anti-tumor efficacy was evaluated by determining the liver metastasis on fresh specimen. […] (C) The mice body weight was recorded for each treatment group, as indicated. […]\nThe anti-neuroblastoma efficacy of mAb 8B6 and chemotherapeutic treatments was determined in the murine NXS2 neuroblastoma experimental liver metastasis model in A/J mice, previously described (28). […] Mice were euthanized on day 27 post-tumor challenge, and anti-tumor efficacy was evaluated by determining the number of liver metastasis."}, "PD-L1": {"system": "PD-L1", "assay": "PD-L1 tumor cell surface expression, flow cytometry of dissociated liver metastasis", "conditions": "FIG. 2B; residual liver metastasis; untreated mice 31.3±7.19%", "procedure": "FIG. 2. Effect of retinoic acid alone or in combination with 8B6 therapy on O-acetyl-GD2 and PD-L1 expression in vivo. Tumor cells harvested from the indicated group were stained with either OAcGD2-specific mAb (A) or PD-L1-specific mAb (B). (A) Flow cytometry analysis was performed with single cell suspension obtained from the liver metastasis harvested from mice in FIG. 1 to assess the OAcGD2 expression, as indicated. […] The level of OAcGD2 expression remains stable after treatments (ns, not significant; p>0.5). (B) Single cell suspension from (A) were also tested for PD-L1 tumor cell surface expression, as indicated. The left panel indicates the percentage of PD-L1 positive tumor cells. […]\n(§1) For flow cytometry analysis, cells were first incubated with a mAb specific for mouse CD16/CD32 to prevent nonspecific binding of primary antibodies against FcγR, and then, were labeled with specific conjugated mAbs. […] Quantification of total cell numbers by flow cytometry was performed done using fluorescent beads (C36950, Thermo Fisher, Waltham, MA, USA). Flow cytometric analysis were performed using an BD FACSCanto II (BD Bioscience) and data were analyzed using FlowJo software (Flowjo LLC, Oregon, OR, USA). The fold increase of tumor NK cell infiltration was calculated by dividing the number of NK cell infiltrated of each condition by the mean of the number of NK cell."}, "CD45+NKp46+CD3− NK cells": {"system": "CD45+NKp46+CD3− NK cells", "assay": "tumor NK cell infiltration, flow cytometry", "conditions": "FIG. 3B; PBS control 0.88±0.2%", "text": "FIG. 3. 13-cis-Retinoic acid combined with mAb 8B6 increases PD-1+NK cell tumor infiltration. (A) Dot plots histograms showing the gating strategy used for flow cytometric identification of CD45+NKP46+CD3− NK cells in tumor cells. (B) Fold increase of total count of NK cells in tumor cells were achieved by flow cytometry of cells gated, as indicated. […] (C) Percentage of PD-1+NK cells in tumor cells from the indicated group.\nLiver metastasis were dissociated with the mouse tumor dissociation kit and the gentle MACS dissociator (Miltenyi) according to the manufacturer's instructions. Single cell suspensions were obtained by passing through a 70 μm pore-size cell MACS SmartStrainer (Miltenyi). […]\nas §1"}}, "data": [{"smiles": "CC1=C(/C=C/C(C)=C/C=C/C(C)=C\\C(=O)O)C(C)(C)CCC1", "note": "[13-cis-RA, 13-cis-retinoic acid]", "values": [{"measurement": "number of liver metastasis (mean±SEM)", "setting": "NXS2 cells", "value": "14.40±0.98"}, {"measurement": "percentage of PD-L1+ tumor cells", "setting": "PD-L1", "value": "39.45±9.76", "unit": "%"}, {"measurement": "intratumoral CD45+NKp46+CD3− NK cells", "setting": "CD45+NKp46+CD3− NK cells", "value": "2.49±0.29", "unit": "%"}]}]}
